Assay results as given in publication doi:10.1101/2025.11.20.689647v1, “Alcohols inhibit glucose transporters noncompetitively at a constant membrane concentration according to lipid theory” (biorxiv, 2025).
Values belong to the compound of their own block, whether it stands above or below them.

Experiments:
Hxt2 [1] = test system: T1, Hxt2; assay: initial 2DG uptake ([…] s, zero-trans), bioluminescent 2DG6P assay in HXT2m cells; format: cell-based, Saccharomyces cerevisiae; conditions: no alcohol, 0–4 mM 2DG, pH 7.4, 25 °C, zero-trans influx
T1 construct: full-length HXT2 expressed from ADH1 promoter on multicopy plasmid Hxt2mnx-pVT (pVT102-U) in S. cerevisiae EBY.S7 (all 18 hexose transporter genes deleted; HXT2m strain)

Hxt2 [2] = test system: T1, Hxt2; assay: as above; format: cell-based, Saccharomyces cerevisiae; conditions: 1 mM 2DG, pH 7.4, 25 °C, 30 min preincubation, authors: nonspecific action via membrane lipid, not specific binding

SMILES: OC[C@H]1OC(O)C[C@@H](O)[C@@H]1O (stereo partly drawn) [2DG, 2-deoxyglucose]
Km (Hxt2 [1]): 800 to 900 µM

IC50 (Hxt2 [2]; noncompetitive): 15.2 mM
SMILES: CCCCCCO [C6, 1-hexanol]

IC50 (Hxt2 [2]): 3.6 mM
SMILES: CCCCCCCCO [C8, 1-octanol]
